Legend:
[1] = biological target: B1 bradykinin receptor (Homo sapiens) (UniProt P46663)
[2] = biological target: Serine/threonine-protein kinase PAK 5 (Homo sapiens) (UniProt Q9P286); settings: Compound concentration 1.0 uM
[3] = biological target: Serine/threonine-protein kinase TBK1 (Homo sapiens) (UniProt Q9UHD2); settings: Compound concentration 1.0 uM
[4] = biological target: Protein kinase C beta type (Homo sapiens) (UniProt P05771)
[5] = biological target: Cyclin-dependent kinase 2/cyclin A (Homo sapiens) (UniProt P24941+P20248+P78396); settings: Compound concentration 1.0 uM
[6] = biological target: Phosphatidylinositol 4-phosphate 3-kinase C2 domain-containing subunit beta (Homo sapiens) (UniProt O00750); settings: Compound concentration 1.0 uM
[7] = biological target: Serine/threonine-protein kinase ULK1 (Homo sapiens) (UniProt O75385); settings: Compound concentration 1.0 uM
[8] = biological target: Mitogen-activated protein kinase kinase kinase kinase 4 (Homo sapiens) (UniProt O95819)
[9] = biological target: T1, Cyclin-G-associated kinase (Homo sapiens) (UniProt O14976)
T1 sequence (whole entry): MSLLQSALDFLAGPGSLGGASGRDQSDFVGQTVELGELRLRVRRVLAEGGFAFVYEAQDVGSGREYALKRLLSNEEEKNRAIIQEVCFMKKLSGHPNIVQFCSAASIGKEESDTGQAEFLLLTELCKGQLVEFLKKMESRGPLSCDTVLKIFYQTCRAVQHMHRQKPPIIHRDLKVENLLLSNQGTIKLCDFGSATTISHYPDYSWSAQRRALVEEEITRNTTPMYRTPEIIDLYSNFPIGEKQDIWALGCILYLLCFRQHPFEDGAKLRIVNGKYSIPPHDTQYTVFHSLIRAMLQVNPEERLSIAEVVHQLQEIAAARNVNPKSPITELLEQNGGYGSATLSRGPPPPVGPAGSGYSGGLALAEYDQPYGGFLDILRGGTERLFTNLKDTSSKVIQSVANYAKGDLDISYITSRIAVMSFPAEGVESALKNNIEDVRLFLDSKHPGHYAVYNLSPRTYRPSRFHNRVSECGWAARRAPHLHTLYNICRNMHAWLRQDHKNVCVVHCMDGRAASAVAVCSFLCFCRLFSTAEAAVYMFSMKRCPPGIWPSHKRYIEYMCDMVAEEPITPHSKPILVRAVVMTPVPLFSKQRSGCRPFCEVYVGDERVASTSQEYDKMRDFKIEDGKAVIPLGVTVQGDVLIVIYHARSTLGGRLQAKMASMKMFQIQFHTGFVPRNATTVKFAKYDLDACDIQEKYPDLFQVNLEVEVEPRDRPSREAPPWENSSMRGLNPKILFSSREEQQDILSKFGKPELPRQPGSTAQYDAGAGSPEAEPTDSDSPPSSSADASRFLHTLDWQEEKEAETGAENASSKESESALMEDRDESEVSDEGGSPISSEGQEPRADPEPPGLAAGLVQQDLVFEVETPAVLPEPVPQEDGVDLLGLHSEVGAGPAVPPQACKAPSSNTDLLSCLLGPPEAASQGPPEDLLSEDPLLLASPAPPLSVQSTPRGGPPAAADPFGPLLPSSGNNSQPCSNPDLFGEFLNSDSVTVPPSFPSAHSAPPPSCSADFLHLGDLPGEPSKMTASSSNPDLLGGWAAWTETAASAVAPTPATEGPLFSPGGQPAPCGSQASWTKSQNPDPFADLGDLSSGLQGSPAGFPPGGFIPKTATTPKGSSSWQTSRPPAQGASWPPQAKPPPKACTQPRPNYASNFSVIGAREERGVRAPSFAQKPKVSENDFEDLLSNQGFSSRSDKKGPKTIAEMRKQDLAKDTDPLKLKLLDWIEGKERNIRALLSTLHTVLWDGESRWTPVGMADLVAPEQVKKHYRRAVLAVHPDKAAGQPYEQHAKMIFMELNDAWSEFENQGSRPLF

[10] = biological target: NUAK family SNF1-like kinase 1 (Homo sapiens) (UniProt O60285); test: NUAK1 Invitrogen Lab (UK) kinase screen (BI); settings: Compound concentration 1.0 uM
[11] = biological target: Macrophage-stimulating protein receptor (Homo sapiens) (UniProt Q04912); settings: Compound concentration 1.0 uM
[12] = biological target: Phosphorylase b kinase gamma catalytic chain, testis/liver isoform (Homo sapiens) (UniProt P15735)
[13] = biological target: Mitogen-activated protein kinase 3 (Homo sapiens) (UniProt P27361); settings: Compound concentration 1.0 uM
[14] = biological target: Mitogen-activated protein kinase 1 (Homo sapiens) (UniProt P28482)
[15] = biological target: Protein kinase C alpha type (Homo sapiens) (UniProt P17252); test: PRKCA Invitrogen Lab (UK) kinase screen (BI); settings: Compound concentration 1.0 uM
[16] = biological target: Mitogen-activated protein kinase kinase kinase 10 (Homo sapiens) (UniProt Q02779); settings: Compound concentration 1.0 uM
[17] = biological target: T2, D(4) dopamine receptor (Homo sapiens) (UniProt P21917); settings: Compound concentration 10.0 uM
T2 sequence (whole entry): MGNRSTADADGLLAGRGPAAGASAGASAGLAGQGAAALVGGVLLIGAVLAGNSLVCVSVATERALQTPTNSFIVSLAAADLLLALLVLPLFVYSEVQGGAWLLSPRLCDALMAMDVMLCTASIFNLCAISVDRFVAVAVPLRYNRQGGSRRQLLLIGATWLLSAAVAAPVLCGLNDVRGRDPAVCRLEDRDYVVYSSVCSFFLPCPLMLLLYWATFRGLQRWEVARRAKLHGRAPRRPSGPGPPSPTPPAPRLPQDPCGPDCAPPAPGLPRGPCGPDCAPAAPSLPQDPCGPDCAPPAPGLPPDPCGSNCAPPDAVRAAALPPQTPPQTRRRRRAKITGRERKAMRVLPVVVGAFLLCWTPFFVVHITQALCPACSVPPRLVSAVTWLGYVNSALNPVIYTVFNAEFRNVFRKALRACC

[18] = biological target: Sodium-dependent noradrenaline transporter (Homo sapiens) (UniProt P23975); settings: Compound concentration 10.0 uM
[19] = biological target: Peripheral plasma membrane protein CASK (Homo sapiens) (UniProt O14936); test: CASK Invitrogen Lab (UK) kinase screen (BI); settings: Compound concentration 1.0 uM
[20] = biological target: Tyrosine-protein kinase Lyn (Homo sapiens) (UniProt P07948); settings: Compound concentration 1.0 uM

Protein kinase C beta type (Homo sapiens), sequence (P05771 2-671 limits assumed): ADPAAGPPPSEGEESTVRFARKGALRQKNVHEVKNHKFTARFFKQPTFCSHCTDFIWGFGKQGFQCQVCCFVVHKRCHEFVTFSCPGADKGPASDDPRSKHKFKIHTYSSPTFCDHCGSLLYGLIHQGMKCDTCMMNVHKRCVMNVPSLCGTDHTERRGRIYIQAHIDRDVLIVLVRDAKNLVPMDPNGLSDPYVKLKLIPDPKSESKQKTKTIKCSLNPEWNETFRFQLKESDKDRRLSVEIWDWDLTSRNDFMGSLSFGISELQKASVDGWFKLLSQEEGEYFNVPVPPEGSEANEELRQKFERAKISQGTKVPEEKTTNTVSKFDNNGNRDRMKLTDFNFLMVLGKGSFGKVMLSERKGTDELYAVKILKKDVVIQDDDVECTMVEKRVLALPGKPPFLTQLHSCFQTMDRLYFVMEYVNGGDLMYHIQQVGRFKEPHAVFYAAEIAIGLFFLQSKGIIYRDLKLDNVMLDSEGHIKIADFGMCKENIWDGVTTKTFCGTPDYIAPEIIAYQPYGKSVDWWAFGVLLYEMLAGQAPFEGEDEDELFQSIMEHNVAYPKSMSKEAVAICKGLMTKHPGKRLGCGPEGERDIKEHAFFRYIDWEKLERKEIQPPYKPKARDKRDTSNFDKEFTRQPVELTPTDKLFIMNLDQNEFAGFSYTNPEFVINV
Mitogen-activated protein kinase 1 (Homo sapiens), sequence (P28482 whole entry): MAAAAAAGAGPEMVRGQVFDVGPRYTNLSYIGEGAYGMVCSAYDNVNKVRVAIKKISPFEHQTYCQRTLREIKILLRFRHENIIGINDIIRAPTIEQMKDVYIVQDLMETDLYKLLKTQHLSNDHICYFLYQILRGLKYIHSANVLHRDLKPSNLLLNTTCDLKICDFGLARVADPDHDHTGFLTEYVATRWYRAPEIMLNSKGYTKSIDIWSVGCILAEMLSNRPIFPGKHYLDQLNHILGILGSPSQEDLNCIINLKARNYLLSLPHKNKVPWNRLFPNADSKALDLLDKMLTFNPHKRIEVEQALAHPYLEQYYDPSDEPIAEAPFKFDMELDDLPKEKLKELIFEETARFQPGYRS
B1 bradykinin receptor (Homo sapiens), sequence (P46663 whole entry): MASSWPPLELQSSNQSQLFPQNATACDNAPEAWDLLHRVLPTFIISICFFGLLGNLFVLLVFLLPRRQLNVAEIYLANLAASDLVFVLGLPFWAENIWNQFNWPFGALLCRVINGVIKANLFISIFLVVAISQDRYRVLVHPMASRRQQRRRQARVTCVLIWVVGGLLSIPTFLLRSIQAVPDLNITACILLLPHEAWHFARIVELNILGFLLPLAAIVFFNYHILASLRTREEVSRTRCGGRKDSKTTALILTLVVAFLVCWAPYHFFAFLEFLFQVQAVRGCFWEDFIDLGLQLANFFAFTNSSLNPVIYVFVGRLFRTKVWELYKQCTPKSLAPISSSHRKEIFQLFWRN
Mitogen-activated protein kinase kinase kinase kinase 4 (Homo sapiens), sequence (O95819 2-1239 limits assumed): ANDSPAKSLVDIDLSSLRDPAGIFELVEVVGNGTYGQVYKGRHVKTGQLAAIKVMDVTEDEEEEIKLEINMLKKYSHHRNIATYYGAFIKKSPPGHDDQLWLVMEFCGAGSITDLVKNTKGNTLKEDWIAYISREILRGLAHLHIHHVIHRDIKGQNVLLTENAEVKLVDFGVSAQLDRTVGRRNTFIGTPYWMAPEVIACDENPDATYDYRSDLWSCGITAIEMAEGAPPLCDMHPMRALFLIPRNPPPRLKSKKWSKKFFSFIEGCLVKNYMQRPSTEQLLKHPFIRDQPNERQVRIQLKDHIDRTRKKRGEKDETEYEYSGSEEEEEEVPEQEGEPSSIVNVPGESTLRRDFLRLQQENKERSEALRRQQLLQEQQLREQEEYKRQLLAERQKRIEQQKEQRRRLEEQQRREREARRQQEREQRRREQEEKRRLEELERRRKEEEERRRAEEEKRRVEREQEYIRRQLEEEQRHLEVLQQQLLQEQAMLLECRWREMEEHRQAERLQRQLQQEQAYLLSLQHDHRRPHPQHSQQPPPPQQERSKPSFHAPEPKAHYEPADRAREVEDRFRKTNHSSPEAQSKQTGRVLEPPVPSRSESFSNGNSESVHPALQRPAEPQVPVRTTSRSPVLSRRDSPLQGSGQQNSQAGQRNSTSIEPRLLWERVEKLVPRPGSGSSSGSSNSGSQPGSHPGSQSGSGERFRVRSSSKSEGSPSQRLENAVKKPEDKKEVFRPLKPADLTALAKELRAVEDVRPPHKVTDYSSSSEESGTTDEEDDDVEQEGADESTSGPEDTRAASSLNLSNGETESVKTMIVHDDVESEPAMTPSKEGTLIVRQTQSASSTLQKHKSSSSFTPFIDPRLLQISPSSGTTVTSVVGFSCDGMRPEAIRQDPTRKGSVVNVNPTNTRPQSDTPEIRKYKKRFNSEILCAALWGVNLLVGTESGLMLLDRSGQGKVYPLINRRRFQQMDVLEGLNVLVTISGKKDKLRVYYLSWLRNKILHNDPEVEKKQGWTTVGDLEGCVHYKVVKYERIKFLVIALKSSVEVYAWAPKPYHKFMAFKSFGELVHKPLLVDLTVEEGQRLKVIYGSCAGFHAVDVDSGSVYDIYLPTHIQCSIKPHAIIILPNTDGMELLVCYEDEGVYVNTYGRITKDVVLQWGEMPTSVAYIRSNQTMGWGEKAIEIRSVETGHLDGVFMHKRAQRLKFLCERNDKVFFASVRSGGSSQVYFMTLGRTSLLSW
Phosphorylase b kinase gamma catalytic chain, testis/liver isoform (Homo sapiens), sequence (P15735 whole entry, looked up, canonical isoform): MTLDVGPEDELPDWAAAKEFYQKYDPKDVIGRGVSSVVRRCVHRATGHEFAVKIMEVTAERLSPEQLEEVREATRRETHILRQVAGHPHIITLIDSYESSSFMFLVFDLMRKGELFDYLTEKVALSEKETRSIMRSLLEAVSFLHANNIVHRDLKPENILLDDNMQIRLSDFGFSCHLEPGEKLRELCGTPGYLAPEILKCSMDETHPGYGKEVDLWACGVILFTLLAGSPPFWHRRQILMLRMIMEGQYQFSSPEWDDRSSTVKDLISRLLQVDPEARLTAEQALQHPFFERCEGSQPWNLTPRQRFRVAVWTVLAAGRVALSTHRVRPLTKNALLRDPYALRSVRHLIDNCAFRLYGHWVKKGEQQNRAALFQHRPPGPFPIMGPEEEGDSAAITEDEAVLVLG
Phosphatidylinositol 4-phosphate 3-kinase C2 domain-containing subunit beta (Homo sapiens), sequence (O00750 whole entry, the tested form may be a part): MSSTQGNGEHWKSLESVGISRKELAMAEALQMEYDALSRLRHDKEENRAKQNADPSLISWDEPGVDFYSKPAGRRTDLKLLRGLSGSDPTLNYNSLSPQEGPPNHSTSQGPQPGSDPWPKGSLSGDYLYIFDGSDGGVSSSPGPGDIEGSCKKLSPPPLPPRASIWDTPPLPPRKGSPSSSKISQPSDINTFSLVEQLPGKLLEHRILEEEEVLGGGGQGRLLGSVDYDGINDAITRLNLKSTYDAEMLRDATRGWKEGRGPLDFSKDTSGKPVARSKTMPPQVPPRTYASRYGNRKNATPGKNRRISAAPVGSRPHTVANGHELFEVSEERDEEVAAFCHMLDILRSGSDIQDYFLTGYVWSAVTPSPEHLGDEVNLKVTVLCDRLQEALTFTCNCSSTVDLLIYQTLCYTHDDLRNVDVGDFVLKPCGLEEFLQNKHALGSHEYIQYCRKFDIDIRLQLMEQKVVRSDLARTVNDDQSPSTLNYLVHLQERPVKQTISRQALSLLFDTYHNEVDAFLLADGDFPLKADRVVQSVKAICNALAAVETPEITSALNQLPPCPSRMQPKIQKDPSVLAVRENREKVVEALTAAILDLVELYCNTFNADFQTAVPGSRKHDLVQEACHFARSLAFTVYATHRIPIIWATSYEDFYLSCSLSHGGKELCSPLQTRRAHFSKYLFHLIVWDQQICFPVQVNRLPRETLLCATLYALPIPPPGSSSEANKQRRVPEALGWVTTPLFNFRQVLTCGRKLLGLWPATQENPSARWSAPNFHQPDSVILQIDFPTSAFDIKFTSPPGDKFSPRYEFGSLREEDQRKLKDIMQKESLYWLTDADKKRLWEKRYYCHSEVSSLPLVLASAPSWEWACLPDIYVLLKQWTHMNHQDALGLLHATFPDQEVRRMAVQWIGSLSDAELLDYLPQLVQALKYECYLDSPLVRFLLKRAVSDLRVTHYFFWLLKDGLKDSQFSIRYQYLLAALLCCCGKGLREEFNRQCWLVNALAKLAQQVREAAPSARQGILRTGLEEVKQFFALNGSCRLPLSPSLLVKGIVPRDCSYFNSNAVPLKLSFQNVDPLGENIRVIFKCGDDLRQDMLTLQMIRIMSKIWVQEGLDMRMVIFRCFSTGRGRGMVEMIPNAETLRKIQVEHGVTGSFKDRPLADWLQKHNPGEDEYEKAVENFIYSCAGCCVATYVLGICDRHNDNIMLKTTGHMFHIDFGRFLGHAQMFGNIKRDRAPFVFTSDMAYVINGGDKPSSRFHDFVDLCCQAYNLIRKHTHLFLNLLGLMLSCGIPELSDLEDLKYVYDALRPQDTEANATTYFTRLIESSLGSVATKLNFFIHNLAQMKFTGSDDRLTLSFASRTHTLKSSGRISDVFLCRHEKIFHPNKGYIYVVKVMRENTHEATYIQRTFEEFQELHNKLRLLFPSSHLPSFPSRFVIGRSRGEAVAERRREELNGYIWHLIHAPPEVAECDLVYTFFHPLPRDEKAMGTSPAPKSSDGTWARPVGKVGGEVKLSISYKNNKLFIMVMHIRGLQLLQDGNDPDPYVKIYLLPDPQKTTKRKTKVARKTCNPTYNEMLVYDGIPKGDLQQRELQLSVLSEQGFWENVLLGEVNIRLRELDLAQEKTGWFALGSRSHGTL
Mitogen-activated protein kinase 3 (Homo sapiens), sequence (P27361 whole entry): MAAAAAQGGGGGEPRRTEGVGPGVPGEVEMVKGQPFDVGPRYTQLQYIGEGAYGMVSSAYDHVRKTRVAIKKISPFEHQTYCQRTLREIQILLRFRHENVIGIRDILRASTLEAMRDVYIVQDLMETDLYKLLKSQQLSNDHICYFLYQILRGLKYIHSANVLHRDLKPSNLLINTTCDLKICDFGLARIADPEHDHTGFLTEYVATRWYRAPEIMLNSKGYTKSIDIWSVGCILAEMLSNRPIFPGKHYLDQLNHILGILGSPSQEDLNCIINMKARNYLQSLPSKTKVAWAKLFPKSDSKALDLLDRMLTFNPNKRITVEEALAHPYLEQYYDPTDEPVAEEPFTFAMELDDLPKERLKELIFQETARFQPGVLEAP

Compound `CCC(F)(F)c1cc(N2CCC(S(C)(=O)=O)CC2)nc2sc(C(N)=O)c(N)c12` [BI-605906] has a residual activity ([1]; Compound concentration 10.0 uM) of 93%, a residual activity ([1]; Compound concentration 100.0 uM) of 108% and a residual activity [2] of 93%. It also gave a residual activity [3] of 96%, a residual activity ([4]; Compound concentration 1.0 uM) of 89% and a residual activity ([4]; Compound concentration 10.0 uM) of 102%. The residual activity [5] was 90%, the residual activity [6] was 101% and the residual activity [7] was 94%. It also gave a residual activity ([8]; Compound concentration 1.0 uM) of 95%, a residual activity ([8]; Compound concentration 10.0 uM) of 89% and a residual activity ([9]; Compound concentration 0.001 uM) of 99%. The residual activity ([9]; Compound concentration 1.0 uM) was 7%, the residual activity ([9]; Compound concentration 20.0 uM) was 6% and the residual activity [10] was 84%. The residual activity [11] was 105%, the residual activity ([12]; Compound concentration 1.0 uM) was 99% and the residual activity ([12]; Compound concentration 10.0 uM) was 97%. The residual activity [13] was 100%, the residual activity ([14]; Compound concentration 1.0 uM) was 92% and the residual activity ([14]; Compound concentration 10.0 uM) was 101%. It also gave a residual activity [15] of 85%, a residual activity [16] of 98% and a residual activity [17] of 95%. The inhibition [18] was 8.84%, the residual activity [19] was 52% and the residual activity [20] was 82%.
